Some test systems named below: 786-0; HCC 2998; LOX IMVI; Malme-3M; NCI-H226; NCI-H23; NCI-H522; OVCAR-3; OVCAR-4; OVCAR-8; RPMI-8226; SF-295; SNB-75; SR; TK-10; UACC-62; UO-31; MDA-MB-435; MDA-N; Hs-578T.
Test in all cases: NCI tumour cell line growth inhibition, 48 h

Consider eleven molecules from ChEMBL document CHEMBL1201862, “PubChem BioAssay data set” (2004).

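Tested at 5 concentrations; 48 h exposure; 96-well plates; endpoints linearly interpolated, else capped at highest concentration. The concentration for 50% growth inhibition is given as GI50.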 Calls of active or inactive are those of the source. Rule as the data show it: active = GI50 up to about 1.1 µM and inactive = higher.

Regarding `COC1=C(N)C(=O)c2nc(C)ccc2C1=O`, the GI50 in the assay with 786-0 is 1.98 µM (inactive); with HCC 2998, 4.57 µM (inactive); in the assay on LOX IMVI it was 0.826 µM (active); with Malme-3M it was 1.77 µM (inactive); with NCI-H226 it was 1.04 µM (active); in the assay on NCI-H23, 1.47 µM (inactive). Moreover, the GI50 was 1.74 µM (inactive) with NCI-H522; 2.02 µM (inactive) with OVCAR-3; 1.89 µM (inactive) in the assay with OVCAR-4; 3.93 µM (inactive) with OVCAR-8; 5.21 µM (inactive) in the assay with RPMI-8226; 1.79 µM (inactive) with SF-295. Further, the GI50 in the assay with SNB-75 was 2.03 µM (inactive); in the assay on SR it was 2.94 µM (inactive); in the assay on TK-10 it was 8.2 µM (inactive); in the assay with UACC-62, 1.75 µM (inactive); with UO-31 it was 2.17 µM (inactive).

Consider `COc1ccc2cc(C(=O)NCCCNC(=O)c3ccc4c(OC)c(OC)ccc4c3)ccc2c1OC`, for which the GI50 in the assay on 786-0, in the assay with HCC 2998, with LOX IMVI, with MDA-MB-435, in the assay on MDA-N and in the assay with NCI-H23 was > 100 µM (inactive) in each case. For the same molecule, the GI50 in the assay with NCI-H522, with OVCAR-3, with OVCAR-4, in the assay with RPMI-8226, in the assay on SF-295 and with SR was > 100 µM (inactive) each time. Besides, the GI50 in the assay with UACC-62 and in the assay on UO-31 was > 100 µM (inactive) each time.

As to `c1cc2c(s1)-c1sccc1C21OCCO1`, the GI50 in the assay on 786-0 is > 100 µM (inactive); in the assay with HCC 2998 it was > 100 µM (inactive); in the assay on LOX IMVI, > 100 µM (inactive); in the assay with MDA-MB-435 it was > 100 µM (inactive); in the assay with MDA-N, > 100 µM (inactive); in the assay with Malme-3M it was 67.1 µM (inactive). Also, the GI50 in the assay with NCI-H226 was > 100 µM (inactive); in the assay with NCI-H23 it was > 100 µM (inactive); in the assay with NCI-H522 it was 82.8 µM (inactive); in the assay with OVCAR-3, > 100 µM (inactive); in the assay with OVCAR-4 it was > 100 µM (inactive); with OVCAR-8 it was > 100 µM (inactive). The GI50 in the assay on RPMI-8226 was 81.7 µM (inactive); in the assay on SF-295 it was > 100 µM (inactive); in the assay on SR it was > 100 µM (inactive); in the assay on TK-10 it was > 100 µM (inactive); in the assay on UACC-62, 19.5 µM (inactive); with UO-31, > 100 µM (inactive).

In the case of `COc1ccc(C2C=C(c3ccc(C)cc3)N(c3ccc(OC)cc3[N+](=O)[O-])C3C(=O)OC(=O)C23)c(OC)c1` (stereo not given), the GI50 with 786-0 is 30.8 µM (inactive); in the assay on HCC 2998, 29.9 µM (inactive); with Hs-578T it was 22.5 µM (inactive); in the assay on LOX IMVI, 25.5 µM (inactive); in the assay on MDA-MB-435 it was 44.3 µM (inactive); in the assay on Malme-3M, 11.1 µM (inactive). The GI50 was 31.5 µM (inactive) in the assay on NCI-H226; 52.4 µM (inactive) in the assay on NCI-H23; 10.4 µM (inactive) with NCI-H522; 20.2 µM (inactive) with OVCAR-3; 62.5 µM (inactive) in the assay on OVCAR-4; 16.2 µM (inactive) in the assay on OVCAR-8. The GI50 is 22 µM (inactive) in the assay with RPMI-8226; 43.9 µM (inactive) in the assay with SF-295; 20.2 µM (inactive) with SNB-75; 20.1 µM (inactive) with SR; 47.5 µM (inactive) with TK-10; 49.4 µM (inactive) in the assay with UACC-62.

As for `O=C(O)COc1ccc(C(=O)/C(SS/C(C(=O)c2ccc(OCC(=O)O)c(Cl)c2Cl)=C2\C=C(c3ccc(Br)cc3)SS2)=C2/C=C(c3ccc(Br)cc3)SS2)c(Cl)c1Cl`, the GI50 is 3.87 µM (inactive) with 786-0; 10.2 µM (inactive) in the assay on HCC 2998; 3.57 µM (inactive) in the assay with Hs-578T; 2.69 µM (inactive) in the assay with LOX IMVI; 30.3 µM (inactive) with MDA-MB-435; 11.5 µM (inactive) with Malme-3M. The GI50 is 6.81 µM (inactive) in the assay with NCI-H226; 4.62 µM (inactive) with NCI-H23; 0.798 µM (active) in the assay on NCI-H522; 3.73 µM (inactive) with OVCAR-3; 4.51 µM (inactive) with OVCAR-4; 5.16 µM (inactive) in the assay on OVCAR-8. The GI50 in the assay with RPMI-8226 was 4.73 µM (inactive); in the assay on SF-295 it was 5.58 µM (inactive); in the assay on SNB-75 it was 7.5 µM (inactive); in the assay on TK-10, 26.7 µM (inactive); with UACC-62, 4.55 µM (inactive); with UO-31, 4.32 µM (inactive).

Turning to `O=C(NC1C(=O)NC(CCc2ccccc2)NC1=O)OCc1ccccc1` (stereo not given), the GI50 with 786-0, in the assay with LOX IMVI, with MDA-MB-435, with Malme-3M, with NCI-H226 and with NCI-H23 was > 100 µM (inactive) each time. Moreover, the GI50 in the assay with NCI-H522, in the assay with OVCAR-3, in the assay with OVCAR-4, in the assay on OVCAR-8, in the assay on RPMI-8226 and in the assay on SF-295 was > 100 µM (inactive) each time. The GI50 in the assay with SNB-75, in the assay on SR, in the assay with TK-10, in the assay on UACC-62 and in the assay on UO-31 was > 100 µM (inactive) throughout.

Regarding `CC(=O)OC(C)(C)CCC(=O)[C@](C)(O)[C@H]1[C@H](O)C[C@@]2(C)[C@@H]3CC=C4C(C)=C(OC5OC(CO)C(O)C(O)C5O)C(=O)C[C@@H]4[C@]3(C)C(=O)C[C@]12C` (stereo not given in full), the GI50 in the assay with 786-0, in the assay with HCC 2998, with LOX IMVI, with MDA-MB-435, with MDA-N and with Malme-3M was > 100 µM (inactive) each time. In addition, the GI50 in the assay with NCI-H226, with NCI-H23, in the assay on NCI-H522, in the assay on OVCAR-3, in the assay with OVCAR-4 and in the assay with OVCAR-8 was > 100 µM (inactive) each time. The GI50 with SF-295, with SNB-75, with SR, in the assay on TK-10, in the assay on UACC-62 and with UO-31 was > 100 µM (inactive) in each case.

Turning to `O=C(NCCCCCCCCNC(=O)c1cccc2ccccc12)c1cccc2ccccc12`, the GI50 in the assay on 786-0 is 4.89 µM (inactive); in the assay with HCC 2998, > 95.7 µM (inactive); with LOX IMVI, > 77.8 µM (inactive); with MDA-MB-435, > 100 µM (inactive); in the assay with MDA-N, > 100 µM (inactive); in the assay with Malme-3M, 44.8 µM (inactive). The GI50 in the assay on NCI-H226 was 8.43 µM (inactive); with NCI-H23, 23.6 µM (inactive); in the assay with NCI-H522 it was 9.4 µM (inactive); with OVCAR-3, 16.7 µM (inactive); in the assay with OVCAR-4, 4.01 µM (inactive); in the assay with OVCAR-8, 9.91 µM (inactive). The GI50 is > 100 µM (inactive) with RPMI-8226; 12.4 µM (inactive) in the assay on SF-295; 4.61 µM (inactive) in the assay with SNB-75; > 100 µM (inactive) in the assay on SR; 12.1 µM (inactive) in the assay on TK-10; 21.2 µM (inactive) with UACC-62. In addition, the GI50 in the assay with UO-31 was 6.3 µM (inactive).

Turning to `C=C1C(=O)O[C@H]2C1C[C@H](O)[C@@]1(C)OC1CC[C@@]1(C)O[C@H]21` (stereo not given in full), the GI50 was 21 µM (inactive) in the assay with 786-0; 14.7 µM (inactive) in the assay on HCC 2998; 37.3 µM (inactive) with Hs-578T; 23.5 µM (inactive) in the assay with MDA-MB-435; 12 µM (inactive) with Malme-3M; 19.5 µM (inactive) with NCI-H23. Moreover, the GI50 with NCI-H522 is 2.79 µM (inactive); in the assay on OVCAR-4 it was 13.6 µM (inactive); in the assay on OVCAR-8, 19 µM (inactive); in the assay with RPMI-8226 it was 6.65 µM (inactive); with SF-295, > 100 µM (inactive); in the assay with SNB-75, 80.4 µM (inactive). For the same molecule, the GI50 with SR was 17.8 µM (inactive); in the assay on TK-10 it was 19.8 µM (inactive); in the assay with UACC-62, 14.6 µM (inactive); with UO-31, 17.1 µM (inactive).

As for `N#C/C(=C\c1cc(F)cc(F)c1)c1ccccn1`, the GI50 in the assay with 786-0 was > 10 µM (inactive); in the assay with HCC 2998 it was 21.1 µM (inactive); in the assay on MDA-N, 19.7 µM (inactive); with Malme-3M it was 25.9 µM (inactive); in the assay on NCI-H226, 17.5 µM (inactive); with NCI-H23, 26.1 µM (inactive). The GI50 with NCI-H522 was 24.2 µM (inactive); in the assay with OVCAR-3 it was 36.1 µM (inactive); in the assay on OVCAR-4, 45.8 µM (inactive); in the assay on OVCAR-8 it was 16 µM (inactive); in the assay on RPMI-8226 it was 14.9 µM (inactive); with SF-295 it was 16.3 µM (inactive). Also, the GI50 in the assay on SNB-75 is 16.1 µM (inactive); in the assay on SR, 24 µM (inactive); in the assay on TK-10, 30.8 µM (inactive); in the assay on UACC-62, 45.1 µM (inactive); in the assay with UO-31, 34.7 µM (inactive).

On to `NS(=O)(=O)c1ccc(-n2c(-c3cccs3)nc3ccc(I)cc3c2=O)cc1`, for which the GI50 in the assay with 786-0 was 28.7 µM (inactive); with HCC 2998 it was 22.1 µM (inactive); in the assay with LOX IMVI, 18.4 µM (inactive); in the assay on MDA-MB-435, 18.9 µM (inactive); with MDA-N, 33.3 µM (inactive); with Malme-3M it was 18.3 µM (inactive). Further, the GI50 with NCI-H226 is 27.4 µM (inactive); in the assay with NCI-H23 it was 25.8 µM (inactive); in the assay on NCI-H522, 19.7 µM (inactive); in the assay on OVCAR-3, 16 µM (inactive); in the assay on OVCAR-4, 24.7 µM (inactive); in the assay on OVCAR-8 it was 31.4 µM (inactive). The GI50 in the assay with SF-295 is 25.4 µM (inactive); in the assay with SNB-75, 37.7 µM (inactive); in the assay with SR, 35 µM (inactive); in the assay on TK-10, 25.4 µM (inactive); in the assay with UACC-62, 17.9 µM (inactive); in the assay with UO-31 it was 20 µM (inactive).
